pIC50: −log10 of the molar value. Where “and” joins values, the source holds several entries; their conditions need not be identical. Equal entries are not always repeated.
What was measured:
FER^WT = FER^WT (Homo sapiens, UniProt P16591); assay: In vitro TR-FRET kinase assay
[1] = system: FES^S700C HL-60 neutrophils; assay: Phagocytosis assay with GFP-expressing E. coli; type: cell-based, human; settings: Figure 7i; replicates
Protocol: HL-60 cells were differentiated to neutrophils as described above. Cells were counted and centrifuged (200g, 5 min), followed by resuspension in growth medium without antibiotics. Cells were incubated with vehicle or inhibitor (from 1000x concentrated stocks in DMSO) for 1 h at 37 °C prior to infection (1×10^6 cells in 900 µL in 12-well plate). Meanwhile, E. coli B834(DE3) constitutively expressing GFP^A206K were grown in LB medium to an OD600 of 0.4–1.0, after which bacteria were centrifuged (2000g, 5 min), washed and resuspended in PBS to appropriate density. Neutrophils were infected by addition of bacteria at multiplicity of infection (MOI) of 30 unless stated otherwise. Cells were then incubated for 1 h at 37 °C unless stated otherwise, after which cells were resuspended and transferred to Eppendorf tubes, washed in FACS buffer (1 mL, 500g, 3 min) and fixed in 1% PFA in PBS (15 min, 4 °C, in the dark). Samples were further processed as described above.
Events (generally 20,000 per condition) were gated by forward and side scatter (cells), side scatter area (singlets) and the percentage of GFP-positive cells and GFP mean fluorescence intensity (MFI) were determined based on background fluorescence for non-infected cells. The GREEN-B channel (525/30 filter) was used to detect GFP.

FES^WT = molecular target: T1, FES^WT (Homo sapiens, UniProt P07332); assay: In vitro TR-FRET kinase assay; type: biochemical; settings: for Residual activity (%): FES WT, mean, n=3
T1 construct: human FES cDNA encoding residues 448–822 or human FER cDNA encoding residues 448–820 was amplified by PCR; made in house; host or cells: E. coli BL21(DE3), co-expressing YopH phosphatase
Protocol: All measurements were performed in triplicate.

T1 sequence (P07332 448-822): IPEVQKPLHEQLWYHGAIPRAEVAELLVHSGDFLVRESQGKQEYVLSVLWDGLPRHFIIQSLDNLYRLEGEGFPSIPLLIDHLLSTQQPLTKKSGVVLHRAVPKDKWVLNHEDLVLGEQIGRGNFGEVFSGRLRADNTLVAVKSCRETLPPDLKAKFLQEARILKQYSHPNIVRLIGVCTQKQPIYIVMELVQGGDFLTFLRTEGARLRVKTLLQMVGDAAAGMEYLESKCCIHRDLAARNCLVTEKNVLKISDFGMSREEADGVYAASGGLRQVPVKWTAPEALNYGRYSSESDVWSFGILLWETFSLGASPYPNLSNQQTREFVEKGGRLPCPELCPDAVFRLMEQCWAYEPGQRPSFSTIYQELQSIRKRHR
Sequence of FER^WT (P16591 448-820): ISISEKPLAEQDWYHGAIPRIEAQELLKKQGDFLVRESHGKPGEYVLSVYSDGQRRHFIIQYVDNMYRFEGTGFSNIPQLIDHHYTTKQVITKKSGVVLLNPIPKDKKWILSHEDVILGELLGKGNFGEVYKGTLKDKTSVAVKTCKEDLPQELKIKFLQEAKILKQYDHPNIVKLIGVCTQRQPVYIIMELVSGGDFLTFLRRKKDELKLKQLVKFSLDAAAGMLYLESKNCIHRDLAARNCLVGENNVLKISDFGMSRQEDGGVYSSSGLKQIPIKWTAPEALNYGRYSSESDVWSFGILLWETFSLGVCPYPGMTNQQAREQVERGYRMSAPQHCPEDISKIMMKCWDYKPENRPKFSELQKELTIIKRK

Structure (SMILES) | Residual activity (%) WT Mean (FER^WT; log[inhibitor] (M) -5) | Residual activity (%) WT Mean (FER^WT; log[inhibitor] (M) -5.52288) | Residual activity (%) WT Mean (FER^WT; log[inhibitor] (M) -6) | Residual activity (%) WT Mean (FER^WT; log[inhibitor] (M) -6.52288) | Residual activity (%) WT Mean (FER^WT; log[inhibitor] (M) -7) | Residual activity (%) WT Mean (FER^WT; log[inhibitor] (M) -7.52288) | Residual activity (%) WT Mean (FER^WT; log[inhibitor] (M) -8) | Residual activity (%) WT Mean (FER^WT; log[inhibitor] (M) -8.52288) | Residual activity (%) WT Mean (FER^WT; log[inhibitor] (M) -9) | Residual activity (%) WT Mean (FER^WT; log[inhibitor] (M) -9.52288) | Residual activity (%) WT Mean (FER^WT; log[inhibitor] (M) -10) | Residual activity (%) WT Mean (FER^WT; log[inhibitor] (M) -10.5229) | Residual activity (%) WT Mean (FER^WT; log[inhibitor] (M) -11) | further results
COc1ccccc1Nc1ncc(Cl)c(Nc2ccccc2S(=O)(=O)C(C)C)n1 [Supplementary Figure 8c] | 0.06517% | 0.1492% | -0.06836% | 0.8273% | 4.343% | 12.0728% | 31.4398% | 59.2785% | 83.3824% | 101.278% | 106.348% | 105.352% | 108.85% | –
CCC(=O)Nc1ccccc1Nc1nc(Nc2ccccc2OC)ncc1Cl [Supplementary Figure 8e] | 15.6173% | 11.558% | 19.5081% | 74.3812% | 96.1324% | 93.3601% | 104.761% | 92.7732% | 106.725% | 98.2336% | 113.972% | 97.8463% | 108.607% | –
COc1ccc2c(c1)CC[C@@H]1[C@@H]2CC[C@]2(C)[C@@H](NCCCCCCN3C(=O)C=CC3=O)CC[C@@H]12 [Compound U-73122, U-73122] | – | – | – | – | – | – | – | – | – | – | – | – | – | Phagocytic index [1]: 64.8265 and 82.4025 and 81.0921 and 67.7147 and 64.5235
COc1ccccc1Nc1ncc(Cl)c(Nc2ccccc2S(=O)(=O)C(C)C)n1 [Supplementary Figure 1c] | – | – | – | – | – | – | – | – | – | – | – | – | – | Residual activity (%) (FES^WT; log[inhibitor] (M) = -5): 3.135%; Residual activity (%) (FES^WT; log[inhibitor] (M) = -5.52288): 1.274%; Residual activity (%) (FES^WT; log[inhibitor] (M) = -6): 0.9673%; Residual activity (%) (FES^WT; log[inhibitor] (M) = -6.52288): 3.912%; Residual activity (%) (FES^WT; log[inhibitor] (M) = -7): 25.313%; Residual activity (%) (FES^WT; log[inhibitor] (M) = -7.52288): 69.4661%; Residual activity (%) (FES^WT; log[inhibitor] (M) = -8): 80.7219%; Residual activity (%) (FES^WT; log[inhibitor] (M) = -8.52288): 93.5112%; Residual activity (%) (FES^WT; log[inhibitor] (M) = -9): 92.1668%; Residual activity (%) (FES^WT; log[inhibitor] (M) = -9.52288): 93.0906%; Residual activity (%) (FES^WT; log[inhibitor] (M) = -10): 84.5762%; Residual activity (%) (FES^WT; log[inhibitor] (M) = -10.5229): 85.1733%; Residual activity (%) (FES^WT; log[inhibitor] (M) = -11): 101.85%
C=CC(=O)Nc1cccc(Nc2nc(Nc3ccccc3OC)ncc2Cl)c1 [Supplementary Figure 1d] | – | – | – | – | – | – | – | – | – | – | – | – | – | Residual activity (%) (FES^WT; log[inhibitor] (M) = -5): 32.3982%; Residual activity (%) (FES^WT; log[inhibitor] (M) = -5.52288): 40.0335%; Residual activity (%) (FES^WT; log[inhibitor] (M) = -6): 62.9411%; Residual activity (%) (FES^WT; log[inhibitor] (M) = -6.52288): 63.4299%; Residual activity (%) (FES^WT; log[inhibitor] (M) = -7): 90.1255%; Residual activity (%) (FES^WT; log[inhibitor] (M) = -7.52288): 87.1043%; Residual activity (%) (FES^WT; log[inhibitor] (M) = -8): 96.4271%; Residual activity (%) (FES^WT; log[inhibitor] (M) = -8.52288): 92.3122%; Residual activity (%) (FES^WT; log[inhibitor] (M) = -9): 101.396%; Residual activity (%) (FES^WT; log[inhibitor] (M) = -9.52288): 120.198%; Residual activity (%) (FES^WT; log[inhibitor] (M) = -10.5229): 97.4644%; Residual activity (%) (FES^WT; log[inhibitor] (M) = -11): 93.0274%
CCC(=O)Nc1ccccc1Nc1nc(Nc2ccccc2OC)ncc1Cl [Compound 5] | – | – | – | – | – | – | – | – | – | – | – | – | – | IC50 (FES^WT; TR-FRET assay, 5 µM ATP, n = 3, read-out: pIC50 FES^WT (converted)): > 10000 nM; pIC50 (FER^WT): 6.90
C#CCOc1ccc(Nc2ncc(Cl)c(Nc3ccccc3NC(=O)C=C)n2)c(OC)c1 [Supplementary Figure 8f] | 5.2329% | 3.792% | 14.1153% | 25.7365% | 62.4124% | 74.9371% | 97.3541% | 92.3988% | 107.069% | 97.7799% | 105.81% | 90.1497% | 111.768% | –
